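A five-concentration, 48-hour dose response in 96-well plates underlies each endpoint, interpolated linearly between surrounding concentrations. GI50 is the concentration that inhibits growth by half.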 Activity calls are given as the source filed them. Cut-off read from the data, not from the text of the source: active = GI50 up to about 1.1 µM and inactive = higher.
How the values were obtained:
Assay in all cases: NCI anticancer screen, dose series, 48 h
OVCAR-4 = test system: OVCAR-4
CCRF-CEM = test system: CCRF-CEM
SNB-75 = test system: SNB-75
RXF 393 = test system: RXF 393
CAKI-1 = test system: CAKI-1
LOX IMVI = test system: LOX IMVI
SR = test system: SR
NCI-H460 = test system: NCI-H460
SF-268 = test system: SF-268
UO-31 = test system: UO-31
K562 = test system: K562
HCT-15 = test system: HCT-15
SN12C = test system: SN12C
Hs-578T = test system: Hs-578T
OVCAR-5 = test system: OVCAR-5
786-0 = test system: 786-0
DU-145 = test system: DU-145
HL-60 = test system: HL-60
T47D = test system: T47D
Malme-3M = test system: Malme-3M
MOLT-4 = test system: MOLT-4
A549 = test system: A549
MDA-MB-231 = test system: MDA-MB-231
BT-549 = test system: BT-549
SF-295 = test system: SF-295
HOP-62 = test system: HOP-62
SK-MEL-5 = test system: SK-MEL-5
MDA-N = test system: MDA-N
NCI-H226 = test system: NCI-H226
SK-OV-3 = test system: SK-OV-3
KM12 = test system: KM12
ACHN = test system: ACHN
TK-10 = test system: TK-10
MDA-MB-435 = test system: MDA-MB-435
OVCAR-8 = test system: OVCAR-8
MCF7 = test system: MCF7
SNB-19 = test system: SNB-19
NCI-H23 = test system: NCI-H23
OVCAR-3 = test system: OVCAR-3
U-251 = test system: U-251
EKVX = test system: EKVX
IGROV-1 = test system: IGROV-1
HT-29 = test system: HT-29
UACC-62 = test system: UACC-62
NCI-H522 = test system: NCI-H522
RPMI-8226 = test system: RPMI-8226
SK-MEL-28 = test system: SK-MEL-28
HCT-116 = test system: HCT-116
UACC-257 = test system: UACC-257
COLO 205 = test system: COLO 205
M14 = test system: M14
NCI/ADR-RES = test system: NCI/ADR-RES
PC-3 = test system: PC-3
A498 = test system: A498
HCC 2998 = test system: HCC 2998
HOP-92 = test system: HOP-92
SF-539 = test system: SF-539
SW-620 = test system: SW-620
SK-MEL-2 = test system: SK-MEL-2

Which GI50 (OVCAR-4) does the source give for `O=c1c2ccccc2nc(N/N=C/c2ccc([N+](=O)[O-])cc2)n1-c1ccccc1` here?
Its GI50 is 6.1 µM (inactive).

What about the GI50 (CCRF-CEM) of the same compound?
Its GI50 is > 100 µM (inactive).

And the GI50 (SNB-75)?
The GI50 was 7.93 µM (inactive).

And the GI50 (RXF 393)?
The GI50 was 7.87 µM (inactive).

What about the GI50 (CAKI-1) of the same compound?
Its GI50 is 21.6 µM (inactive).

And the GI50 (LOX IMVI)?
Its GI50 is 3.08 µM (inactive).

And the GI50 (SR)?
Its GI50 is > 100 µM (inactive).

What about the GI50 (NCI-H460) of the same compound?
The GI50 was > 100 µM (inactive).

And the GI50 (SF-268)?
Its GI50 is 12.1 µM (inactive).

And the GI50 (UO-31)?
Its GI50 is > 100 µM (inactive).

What about the GI50 (K562) of the same compound?
Its GI50 is 52.1 µM (inactive).

And the GI50 (HCT-15)?
The GI50 was greater than 100 µM.

What about the GI50 (SN12C) of the same compound?
The GI50 was 91 µM (inactive).

And the GI50 (Hs-578T)?
Its GI50 is 6.35 µM (inactive).

What about the GI50 (OVCAR-5) of the same compound?
Its GI50 is > 100 µM (inactive).

And the GI50 (786-0)?
Its GI50 is 5.37 µM (inactive).

What about the GI50 (DU-145) of the same compound?
The GI50 was 26.9 µM (inactive).

And the GI50 (HL-60)?
Its GI50 is > 100 µM (inactive).

And the GI50 (T47D)?
Its GI50 is 9.59 µM (inactive).

What about the GI50 (Malme-3M) of the same compound?
Its GI50 is 35.9 µM (inactive).

And the GI50 (MOLT-4)?
Its GI50 is 77.3 µM (inactive).

What about the GI50 (A549) of the same compound?
The GI50 was 15.6 µM (inactive).

And the GI50 (MDA-MB-231)?
The GI50 was 11.7 µM (inactive).

What about the GI50 (BT-549) of the same compound?
The GI50 was 18 µM (inactive).

And the GI50 (SF-295)?
Its GI50 is 4.35 µM (inactive).

What about the GI50 (HOP-62) of the same compound?
The GI50 was 13.3 µM (inactive).

And the GI50 (SK-MEL-5)?
Its GI50 is 64.3 µM (inactive).

And the GI50 (MDA-N)?
Its GI50 is 57.5 µM (inactive).

And the GI50 (NCI-H226)?
Its GI50 is > 100 µM (inactive).

And the GI50 (SK-OV-3)?
The GI50 was 18.7 µM (inactive).

What about the GI50 (KM12) of the same compound?
The GI50 was 36.3 µM (inactive).

And the GI50 (ACHN)?
Its GI50 is 13.3 µM (inactive).

What about the GI50 (TK-10) of the same compound?
Its GI50 is 18 µM (inactive).

What about the GI50 (MDA-MB-435) of the same compound?
Its GI50 is 42.4 µM (inactive).

What about the GI50 (OVCAR-8) of the same compound?
Its GI50 is 37.8 µM (inactive).

And the GI50 (MCF7)?
The GI50 was 20.9 µM (inactive).

And the GI50 (SNB-19)?
Its GI50 is 20.7 µM (inactive).

And the GI50 (NCI-H23)?
Its GI50 is 61.1 µM (inactive).

And the GI50 (OVCAR-3)?
The GI50 was 31.3 µM (inactive).

And the GI50 (U-251)?
Its GI50 is 15.1 µM (inactive).

And the GI50 (EKVX)?
The GI50 was 20 µM (inactive).

And the GI50 (IGROV-1)?
Its GI50 is > 100 µM (inactive).

And the GI50 (HT-29)?
Its GI50 is > 100 µM (inactive).

And the GI50 (UACC-62)?
The GI50 was 27 µM (inactive).

And the GI50 (NCI-H522)?
The GI50 was 31.4 µM (inactive).

What about the GI50 (RPMI-8226) of the same compound?
The GI50 was > 100 µM (inactive).

And the GI50 (SK-MEL-28)?
Its GI50 is 10.7 µM (inactive).

What about the GI50 (HCT-116) of the same compound?
The GI50 was 5.05 µM (inactive).

What about the GI50 (UACC-257) of the same compound?
The GI50 was 15.6 µM (inactive).

And the GI50 (COLO 205)?
The GI50 was > 100 µM (inactive).

What about the GI50 (M14) of the same compound?
The GI50 was 31.7 µM (inactive).

And the GI50 (NCI/ADR-RES)?
The GI50 was 13.4 µM (inactive).

What about the GI50 (PC-3) of the same compound?
The GI50 was 17.3 µM (inactive).

What does the source list for `O=C(O)C1OC1(c1cccc(Cl)c1)c1ccccc1Cl` (stereo unspecified)?
GI50 (OVCAR-4): 23.5 µM (inactive); GI50 (CCRF-CEM): 11.2 µM (inactive); GI50 (A498): 79.1 µM (inactive); GI50 (SNB-75): 19.9 µM (inactive); GI50 (RXF 393): 27.4 µM (inactive); GI50 (CAKI-1): 20.5 µM (inactive); GI50 (HCC 2998): 25.9 µM (inactive); GI50 (LOX IMVI): 18 µM (inactive); GI50 (NCI-H460): 42.7 µM (inactive); GI50 (SF-268): 20.6 µM (inactive); GI50 (UO-31): 20.8 µM (inactive); GI50 (K562): 16.7 µM (inactive); GI50 (HCT-15): 6.76 µM; GI50 (SN12C): 23 µM (inactive); GI50 (Hs-578T): 25.4 µM (inactive); GI50 (OVCAR-5): 58.7 µM (inactive); GI50 (786-0): 43.1 µM (inactive); GI50 (DU-145): 26.1 µM (inactive); GI50 (HL-60): 17.2 µM (inactive); GI50 (T47D): 20.7 µM (inactive); GI50 (Malme-3M): 19.7 µM (inactive); GI50 (HOP-92): 23.1 µM (inactive); GI50 (MOLT-4): 27.5 µM (inactive); GI50 (A549): 35.8 µM (inactive); GI50 (MDA-MB-231): 18.1 µM (inactive); GI50 (BT-549): 18.8 µM (inactive); GI50 (SF-295): 25.7 µM (inactive); GI50 (HOP-62): 23.9 µM (inactive); GI50 (SK-MEL-5): 20 µM (inactive); GI50 (MDA-N): 23.6 µM (inactive); GI50 (NCI-H226): 38.2 µM (inactive); GI50 (SK-OV-3): 22.5 µM (inactive); GI50 (KM12): 29.6 µM (inactive); GI50 (SF-539): 25.9 µM (inactive); GI50 (SW-620): 20.7 µM (inactive); GI50 (ACHN): 31.7 µM (inactive); GI50 (TK-10): 31.5 µM (inactive); GI50 (MDA-MB-435): 22.9 µM (inactive); GI50 (OVCAR-8): 32.1 µM (inactive); GI50 (MCF7): 29.4 µM (inactive); GI50 (SNB-19): 33.9 µM (inactive); GI50 (NCI-H23): 20.8 µM (inactive); GI50 (OVCAR-3): 16.1 µM (inactive); GI50 (U-251): 11.1 µM (inactive); GI50 (EKVX): 25.4 µM (inactive); GI50 (SK-MEL-2): 15.7 µM (inactive); GI50 (IGROV-1): 34.9 µM (inactive); GI50 (HT-29): 25.9 µM (inactive); GI50 (UACC-62): 14.8 µM (inactive); GI50 (NCI-H522): 24.5 µM (inactive); GI50 (RPMI-8226): 31.1 µM (inactive); GI50 (SK-MEL-28): 22.1 µM (inactive); GI50 (HCT-116): 19 µM (inactive); GI50 (UACC-257): 26.6 µM (inactive); GI50 (COLO 205): 53.3 µM (inactive); GI50 (M14): 18.8 µM (inactive); GI50 (NCI/ADR-RES): 18.1 µM (inactive); GI50 (PC-3): 21.8 µM (inactive)

— ChEMBL document CHEMBL1201862, “PubChem BioAssay data set” (2004)
